Data from patent publication US8389573B2, “Glycyrrhetinic acid derivatives” (Wellington Laboratories Inc., priority 2006, dated 2013).

How the values were obtained:
SW480 colon cancer cells = experiment: Cell proliferation assay in SW480 cells; assay type: cell-based; settings: Homo sapiens, read-out: IC50, growth inhibition / cell proliferation
Description: Human colon carcinoma cell lines SW480 and HT29 were provided by Dr. Stan Hamilton, M.D. Anderson Cancer Center (Houston, Tex.); SW-480 and HT-29 cells were maintained in Dulbecco's modified Eagle's medium nutrient mixture with Ham's F-12 (DMEM/Ham's F-12; Sigma-Aldrich, St. Louis, Mo.) with phenol red supplemented with 0.22% sodium bicarbonate, 0.011% sodium pyruvate, and 5% fetal bovine serum and 10 ml/l 100× antibiotic antimycotic solution (Sigma-Aldrich). Cells were maintained at 37° C. in the presence of 5% CO2.
SW480 and HT 29 Cells (2×10^4) were plated in 12-well plates, and media were replaced the next day with DMEM/Ham's F-12 media containing 2.5% charcoal-stripped FBS and either vehicle (DMSO) or the indicated ligand and dissolved in DMSO. Fresh media and compounds were added every 48 h. Cells were counted at the indicated times using a Coulter Z1 cell counter. Each experiment was done in triplicate, and results are expressed as means±S.E. for each determination

PSA mRNA = experiment: Real-time PCR of PSA mRNA in LNCaP cells; assay type: cell-based, human; settings: 12 or 18 hr
Description: Real-Time PCR: Total RNA was isolated using the RNeasy Protect Mini kit (QIAGEN, Valencia, Calif.) according to the manufacturer's protocol. RNA was eluted with 30 μl of RNasefree water and stored at −80° C. RNA was reverse transcribed using Superscript II reverse transcriptase (Invitrogen) according to the manufacturer's protocol. cDNA was prepared from the LNCaP cell line using a combination of oligodeoxythymidylic acid and dNTP mix (Applied Biosystems, Foster City, Calif.) and Superscript II (Invitrogen). Each PCR was carried out in triplicate in a 25-μl volume using SYBR Green Master mix (Applied Biosystems) for 15 min at 95° C. for initial denaturing, followed by 40 cycles of 95° C. for 30 s and 60° C. for 1 min in the ABI Prism 7700 sequence detection system (Applied Biosystems). The ABI Dissociation Curves software was used after a brief thermal protocol (95° C. 15 s and 60° C. 20 s, followed by a slow ramp to 95° C.) to control for multiple species in each PCR amplification. The comparative CT method was used for relative quantitation of samples. Values for each gene were normalized to expression levels of TATA-binding protein. Primers were purchased from Integrated DNA Technologies (Coralville, Iowa). The sequences of the primers used for reverse transcription-PCR were as follows: AR forward, 5′-GTA CCC TGG CGG CAT GGT-3′ [SEQ ID NO: 1] and AR reverse, 5′-CCCATTTCGCTTTTGACACA-3′ [SEQ ID NO: 2]; PSA forward, 5′-GCATTGAACCAGAGGAGTTCTTG-3′ [SEQ ID NO: 3] and PSA reverse, 5′-TTG CGC ACA CAC GTC ATT G-3′ [SEQ ID NO: 4]; and TATA-binding protein forward, 5′-TGCACAGGAGCCAAGAGTGAA-3′ [SEQ ID NO: 5] and reverse, 5′-CACATCACAGCTCCCCACCA-3′ [SEQ ID NO: 6].

PSA promoter = experiment: PSA-luc promoter luciferase assay in LNCaP cells; assay type: cell-based; settings: basal
From the text: Transfections: The Gal4 reporter construct containing 5× Gal4 response elements (pGal4) was kindly provided by Dr. Marty Mayo (University of North Carolina, Chapel Hill, N.C.). The Gal4 DBD-PPARγ construct was a gift of Dr. Jennifer L. Oberfield (Glaxo Wellcome Research and Development, Research Triangle Park, N.C.). The PPRE-luc construct contains three tandem PPREs with a minimal TATA sequence linked to the luciferase gene in pGL2. The AR-luc construct containing the −5400 to +580 region of the androgen receptor promoter was provided by Dr. Donald J. Tindall (Mayo Clinic, Rochester, Minn.), and the PSA-luc construct containing the 5.8-kilobase region of the PSA promoter was provided by Dr. Hong-Wu Cheng (University of California, Davis, Calif.). LNCaP cells (1×10^5) were seeded in 12-well plates in DMEM/Ham's F-12 media supplemented with 2.5% charcoal-stripped FBS and grown overnight. Transient transfections were performed using Lipofectamine reagent (Invitrogen) according to the protocol provided by the manufacturer. Transfection studies were performed using 0.4 μg of Gal4Luc, 0.04 μg of β-galactosidase, 0.04 μg of Gal4 DBD-PPARγ, 0.4 μg of AR-luc, and 0.3 μg of PSA-luc. […] A Lumicount luminometer (PerkinElmer Life and Analytical Sciences) was used to quantify luciferase and β-galactosidase activities, and the luciferase activities were normalized to β-galactosidase activity.

Compound: COC(=O)[C@@]1(C)CC[C@]2(C)CC[C@]3(C)C(=CC(=O)[C@@H]4[C@@]5(C)C=C(C#N)C(=O)C(C)(C)[C@@H]5CC[C@]43C)[C@@H]2C1 [β-CDODA-Me, Methyl 2-cyano-3,11-dioxo-18β-oleana-1,12-dien-30-oate]
- IC50 (SW480 colon cancer cells): 200 to 500 nM
- PSA mRNA levels (PSA mRNA): downregulation of PSA mRNA levels
- PSA mRNA response after cotreatment with T007 (PSA mRNA): not inhibited
- downregulation of PSA mRNA levels after cotreatment with cycloheximide (PSA mRNA): significantly inhibited
- transactivation of PSA-Luc construct (PSA promoter): inhibited transactivation
